Measurements taken from paper PMC10302753, “Natural-Product-Inspired Microwave-Assisted Synthesis of Novel Spirooxindoles as Antileishmanial Agents: Synthesis, Stereochemical Assignment, Bioevaluation, SAR, and Molecular Docking Studies” (Molecules, 2023).
“Also recorded” adds a separate entry of the source. Like-named read-outs stand apart in the source and are kept apart here. Values belong to the compound of their own block, whether it stands above or below them.

What was measured:
[1] = tested on: promastigotes of Leishmania donovani (MHOM/IN/1983/AG83); experiment: In vitro antileishmanial activity, Trypan blue dye exclusion method; assay type: cell-based; conditions: 72 h, L. donovani promastigotes, 22 ± 1 °C, 50% growth inhibition, read-out: IC50 Using Trypan Blue Dye Exclusion Method
Protocol: The compounds (23a–f, 24a–f, and 25a–g) were initially screened for their in vitro antileishmanial activity against promastigotes of Leishmania donovani (MHOM/IN/1983/AG83) utilizing the Trypan blue dye exclusion method and the plasmid relaxation assay using amphotericin B and camphothesin as standard reference drugs, respectively.
The promastigotes were harvested from the culture vials, counted, and 2 × 10^6 cells/well were seeded in a 48-well culture plate. The antileishmanial screening of all the derivatives, 23a–f, 24a–f, and 25a–g, as well as the positive control, was performed at various concentrations (2 μg/mL, 4 μg/mL, 8 μg/mL, and 16 μg/mL) added in triplicate. The plate was incubated at 22 ± 1 °C in the BOD incubator for 72 h. After 72 h, each well was counted for the number of viable parasites using the Trypan blue dye exclusion method, and the percentage growth inhibition was calculated by using the formula: Percentage viability=No. of viable cells in treated well/No. of viable cells in blank well×100 Percentage growth inhibition = 100 − percentage viability […]
The IC50 (inhibitory concentration at which 50% of the parasites were dead) value was obtained by plotting a linear dose–response curve in SPSS software (Version 23). […]
Parasite strain and culture conditions:
The SSG-sensitive Indian strain of Leishmania donovani (MHOM/IN/1983/AG83) obtained from CSIR-IICB, Kolkata, was used for the study. The promastigotes of these strains were maintained in Medium 199+10% FCS (Foetal Calf Serum) by serial sub-culturing at an ambient temperature of 22±1°C every 72 […]
In vitro antileishmanial activity
Trypan blue dye exclusion method
For carrying out the antileishmanial activity in vitro, promastigotes of Leishmania donovani were used.
The promastigotes were harvested from the culture vials, counted, and 2 × 10^6 cells/well were seeded in a 48-well culture plate. Further, compounds at various concentrations (2 μg/mL, 4 μg/mL, 8 μg/mL and 16 μg/mL) were added in triplets. No drug was added to the well serving as a blank, and amphotericin B was added to the well serving as the positive control. The plate was incubated at 22 ± 1°C in the BOD incubator for 72 hours. After 72 hours, each well was counted for the number of viable parasites using the trypan blue dye exclusion method, and the percentage growth inhibition was calculated by using the formula:
Percentage growth inhibition = 100 – percentage viability
IC50 (inhibitory concentration at which 50% of the parasites were dead) was obtained by plotting a linear dose-response curve in SPSS software (Version 23). […]
8.0) after being stained with ethidium bromide (0.5 µg/mL). Plotting the percentage of supercoiled DNA versus drug concentrations allowed researchers to determine the 50% inhibition concentration (IC50) values of LTopIB inhibition as the 50% reduction of supercoiled DNA.
Characterization data of spirooxindole derivatives (23a-f, 24a-f, 25a-g).
(1'S,2'R,3S,7a'S)-1'-(4-chlorophenyl)-2'-(4-fluorobenzoyl)-5-methyl-1',2',5',6',7',7a'-hexahydrospiro [indoline-3,3'-pyrrolizin]-2-one (23a): The product was synthesized utilizing the microwave-irradiated approach, and purified by column chromatography over silica gel using hexane/EtOAc (8:2) as an eluent; Physical Appearance: light yellow solid; Yield: 98%; Rf (EtOAc/hexane: 1:1) = 0.48; m.p. 182-184 °C; […]
(1'S,2'R,3S,7a'S)-5-fluoro-2'-(4-fluorobenzoyl)-1'-(4-methoxyphenyl)-1',2',5',6',7',7a'-hexahydro spiro[indoline-3,3'-pyrrolizin]-2-one (23b): The product was synthesized utilizing the microwave-irradiated approach, and purified by column chromatography over silica gel using hexane/EtOAc (7:3) as an eluent; Physical Appearance: light yellow solid; Yield: 66%; Rf (EtOAc/hexane: 1:1) = 0.45; m.p. 161-

[2] = target: Leishmania DNA topoisomerase type IB (purified recombinant LTopIB) (Leishmania donovani, UniProt A0A3Q8IHS4+Q8WQM6); experiment: Plasmid relaxation assay (relaxation of supercoiled plasmid DNA); assay type: biochemical; conditions: for LTopIB inhibition, result in words: recombinant enzyme in vitro, initial test at 100 µM, then dose/response
Sequence of Leishmania DNA topoisomerase type IB (purified recombinant LTopIB) (Q8WQM6 entry or part of it): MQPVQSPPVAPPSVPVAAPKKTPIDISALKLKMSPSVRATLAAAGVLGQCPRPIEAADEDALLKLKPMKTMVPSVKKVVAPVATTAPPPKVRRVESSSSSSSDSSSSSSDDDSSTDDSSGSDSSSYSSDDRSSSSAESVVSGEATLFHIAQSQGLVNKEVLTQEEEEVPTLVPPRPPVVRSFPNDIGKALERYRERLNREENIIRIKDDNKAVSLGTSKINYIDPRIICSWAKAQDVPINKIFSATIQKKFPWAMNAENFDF
Sequence of Leishmania DNA topoisomerase type IB (purified recombinant LTopIB) (A0A3Q8IHS4 entry or part of it): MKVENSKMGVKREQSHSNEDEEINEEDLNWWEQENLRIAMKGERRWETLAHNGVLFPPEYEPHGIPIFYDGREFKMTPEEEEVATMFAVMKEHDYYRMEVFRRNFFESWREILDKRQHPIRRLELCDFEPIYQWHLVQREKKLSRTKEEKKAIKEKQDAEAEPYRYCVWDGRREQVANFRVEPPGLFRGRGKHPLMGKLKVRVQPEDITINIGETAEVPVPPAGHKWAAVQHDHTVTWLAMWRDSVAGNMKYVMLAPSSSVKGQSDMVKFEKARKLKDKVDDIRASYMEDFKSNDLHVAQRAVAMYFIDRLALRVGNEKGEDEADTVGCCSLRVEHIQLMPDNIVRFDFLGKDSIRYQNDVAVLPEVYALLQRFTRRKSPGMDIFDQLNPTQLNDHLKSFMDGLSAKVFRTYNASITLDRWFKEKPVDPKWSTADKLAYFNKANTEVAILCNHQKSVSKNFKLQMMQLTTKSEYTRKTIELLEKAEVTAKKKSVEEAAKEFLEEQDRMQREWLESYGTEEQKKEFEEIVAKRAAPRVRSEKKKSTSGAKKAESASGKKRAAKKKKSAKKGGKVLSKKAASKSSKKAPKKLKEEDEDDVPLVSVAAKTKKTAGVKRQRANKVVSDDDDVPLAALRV
Protocol: The relaxation of supercoiled plasmid DNA is the method used for the determination of LTopIB activity. Various doses of each compound were treated with one unit of pure LTopIB (the enzyme to relax 0.5 µg of supercoiled DNA for 30 min at 37 °C) for 20 min at 4 °C. The reaction mixture, including 0.5 μg of supercoiled pBluescript SK(−) plasmid, 10 mM Tris-HCl buffer pH 7.5, 5 mM MgCl2, 0.1 mM EDTA, 15 µg/mL of bovine serum albumin, and 150 mM KCl, was then added in a final volume of 20 μL. After 30 min at 37 °C, the reaction mixtures were stopped by adding 4 μL of loading buffer, which included 5% sarkosyl, 0.12% bromophenol blue, and 25% glycerol. By electrophoresis, the topoisomers were separated on 1% agarose gels and electrophoresed at 2 V/cm for 16 h in a 0.1 M Tris-borate-EDTA buffer (pH 8.0) after being stained with ethidium bromide (0.5 µg/mL). Plotting the percentage of supercoiled DNA versus drug concentrations allowed researchers to determine the 50% inhibition concentration (IC50) values of LTopIB inhibition as the 50% reduction of supercoiled DNA [72].
Because of the presence of spirooxindole systems in the structure of these compounds, we aimed to assess their inhibitory potential on purified recombinant LTopIB measuring the relaxation of supercoiled plasmid DNA. In this regard, all spirooxindole derivatives were assessed for LTopIB inhibition through the prevention of DNA relaxation in a circular DNA plasmid. […] After this initial test, potential inhibitor dose/response curves were performed to obtain their IC50 values. […]
The relaxation of supercoiled plasmid DNA is the method used for the determination of LTopIB activity.
Various doses of each compound were treated with one unit of pure LTopIB (the enzyme to relax 0.5 µg of supercoiled DNA for 30 min at 37 °C) for 20 min at 4 °C. The reaction mixture including 0.5 μg of supercoiled pBluescript SK(−) plasmid, 10 mM Tris-HCl buffer pH 7.5, 5 mM MgCl2, 0.1 mM EDTA, 15 µg/mL bovine serum albumin, and 150 mM KCl was then added in a final volume of 20 μL. After 30 minutes at 37 °C, the reaction mixtures were stopped by adding 4 μL of loading buffer, which included 5% sarkosyl, 0.12% bromophenol blue, and 25% glycerol. By electrophoresis, the topoisomers were separated in 1% agarose gels were electrophoresed at 2 V/cm for 16 hours in a 0.1 M Tris-borate-EDTA buffer (pH 8.0) after being stained with ethidium bromide (0.5 µg/mL). Plotting the percentage of supercoiled DNA versus drug concentrations allowed researchers to determine the 50% inhibition concentration (IC50) values of LTopIB inhibition as the 50% reduction of supercoiled DNA. […]

[3] = LTopIB inhibition, 50% reduction of supercoiled DNA, read-out: IC50 Using Plasmid Relaxation Assay

SMILES: Cc1ccc(C(=O)C2C(c3ccc(Br)cc3)C(Cc3ccccc3)NC23C(=O)Nc2ccc(I)cc23)cc1 (stereo not shown) [24f]
- IC50 ([1]; Leishmania donovani): 1.62 µM
- IC50 [2, 3]: 19.6 µM
- LTopIB inhibition, result in words [2]: showed potential results; also recorded: potent LTopIB inhibitors; also recorded: able to inhibit the recombinant enzyme in vitro

SMILES: O=C(c1ccc(F)cc1)[C@@H]1[C@@H](c2ccc(Cl)cc2)[C@H](Cc2ccccc2)N[C@@]12C(=O)Nc1ccccc12 [24d]
- IC50 ([1]; Leishmania donovani): > 20 µM
- IC50 [2, 3]: > 100 µM
- melting point: 104 to 106 °C

SMILES: COc1ccc(C2C(Cc3cc4ccccc4[nH]3)NC3(C(=O)Nc4ccc(Br)cc43)C2C(=O)c2ccc(F)cc2)cc1 (stereo not shown) [25a]
- melting point: 154 to 156 °C

SMILES: Cc1ccc2c(c1)[C@]1(N[C@@H](Cc3ccccc3)[C@H](c3ccc(Cl)cc3)[C@H]1C(=O)c1ccc([N+](=O)[O-])cc1)C(=O)N2 [24c]
- IC50 ([1]; Leishmania donovani): > 20 µM
- IC50 [2, 3]: > 100 µM
- melting point: 135 to 137 °C

SMILES: COc1ccc(C2C3CCCN3C3(C(=O)Nc4ccc(F)cc43)C2C(=O)c2ccc(Br)cc2)cc1 (stereo not shown) [23c]
- IC50 ([1]; Leishmania donovani): > 20 µM
- IC50 [2, 3]: > 100 µM
- melting point: 126 to 128 °C

SMILES: COc1ccc(C2C3CCCN3C3(C(=O)Nc4ccc(OC)cc43)C2C(=O)c2ccc(Br)cc2)cc1 (stereo not shown) [23d]
- IC50 [1]: 7.78 µM
- IC50 ([1]; Leishmania donovani): ≤ 10 µM
- IC50 [2, 3]: 53.6 µM
- melting point: 107 to 109 °C

SMILES: O=C(c1ccccc1)[C@@H]1[C@@H](c2ccccc2)[C@@H]2CCCN2[C@@]12C(=O)Nc1ccc(Br)cc12 [23f, (1′S,2′R,3S,7a’S)-2′-benzoyl-5-bromo-1′-phenyl-1′,2′,5′,6′,7′,7a’-hexahydrospiro[indolin-3,3′-pyrrolizin]-2-one]
- IC50 ([1]; Leishmania donovani): > 20 µM
- IC50 [2, 3]: > 100 µM
- melting point: 175 to 177 °C

SMILES: Cc1ccc(C(=O)[C@@H]2[C@@H](c3ccc(Br)cc3)[C@H](Cc3ccccc3)N[C@@]23C(=O)Nc2ccc([N+](=O)[O-])cc23)cc1 [24b]
- IC50 [1]: 5.36 µM
- IC50 ([1]; Leishmania donovani): ≤ 10 µM
- IC50 [2, 3]: 37.6 µM
- melting point: 121 to 122 °C

SMILES: COc1ccc([C@@H]2[C@@H](C(=O)c3ccc(F)cc3)[C@]3(C(=O)Nc4ccc(F)cc43)N3CCC[C@@H]23)cc1 [23b, (1'S,2'R,3S,7a'S)-5-fluoro-2'-(4-fluorobenzoyl)-1'-(4-methoxyphenyl)-1',2',5',6',7',7a'-hexahydrospiro[indoline-3,3'-pyrrolizin]-2-one]
- IC50 ([1]; Leishmania donovani): > 20 µM
- IC50 [2, 3]: > 100 µM
- melting point: 161 to 163 °C

SMILES: COc1ccc(C2C3CCCN3C3(C(=O)Nc4ccc([N+](=O)[O-])cc43)C2C(=O)c2ccc(Br)cc2)cc1 (stereo not shown) [23e]
- IC50 ([1]; Leishmania donovani): > 20 µM
- IC50 [2, 3]: > 100 µM
- melting point: 111 to 113 °C

SMILES: COc1ccc2c(c1)[C@]1(N[C@@H](Cc3ccccc3)[C@H](c3ccc(Cl)cc3)[C@H]1C(=O)c1ccc([N+](=O)[O-])cc1)C(=O)N2 [24a]
- IC50 ([1]; Leishmania donovani): 2.43 µM
- IC50 [2, 3]: 17.3 µM
- LTopIB inhibition, result in words [2]: showed potential results; also recorded: potent LTopIB inhibitors; also recorded: able to inhibit the recombinant enzyme in vitro

SMILES: C[C@@H]1[C@H](O)[C@@H](C)/C=C/C=C/C=C/C=C/C=C/C=C/C=C/[C@H](O[C@@H]2O[C@H](C)[C@@H](O)[C@H](N)[C@@H]2O)C[C@@H]2O[C@](O)(C[C@@H](O)C[C@@H](O)[C@H](O)CC[C@@H](O)C[C@@H](O)CC(=O)O[C@H]1C)C[C@H](O)[C@H]2C(=O)O [Amphotericin B, reference compound]
- IC50 ([1]; Leishmania donovani): 0.06 µM

SMILES: CC[C@@]1(O)C(=O)OCc2c1cc1n(c2=O)Cc2cc3ccccc3nc2-1 [Camptothecin, reference compound]
- IC50 [2]: 3 µM

SMILES: O=C(c1ccc([N+](=O)[O-])cc1)[C@@H]1[C@@H](c2ccc(Cl)cc2)[C@H](Cc2ccccc2)N[C@@]12C(=O)Nc1c(Br)cccc12 [24e]
- IC50 ([1]; Leishmania donovani): 0.96 µM
- IC50 [2, 3]: 15.7 µM
- LTopIB inhibition, result in words [2]: showed potential results; also recorded: potent LTopIB inhibitors; also recorded: able to inhibit the recombinant enzyme in vitro

The next lines start with results.

- IC50 [2, 3]: 27.2 µM
SMILES: COc1ccc(C2C(Cc3c[nH]c4ccccc34)NC3(C(=O)Nc4ccc(F)cc43)C2C(=O)c2ccc(C3CCCCC3)cc2)cc1 (stereo not shown) [25d]
- IC50 ([1]; Leishmania donovani): 3.55 µM
- LTopIB inhibition, result in words [2]: showed potential results; also recorded: potent LTopIB inhibitors; also recorded: able to inhibit the recombinant enzyme in vitro

- IC50 [2, 3]: 89.1 µM
- melting point: 118 to 120 °C
SMILES: COc1ccc([C@H]2[C@H](Cc3cc4ccccc4[nH]3)N[C@@]3(C(=O)Nc4ccccc43)[C@@H]2C(=O)c2ccc(Br)cc2)cc1 [25b]
- IC50 ([1]; Leishmania donovani): > 10 µM

- melting point: 142 to 145 °C
SMILES: COc1ccc2c(c1)C1(NC(Cc3cc4ccccc4[nH]3)C(c3ccc(Cl)cc3)C1C(=O)c1ccc(F)cc1)C(=O)N2 (stereo not shown) [25g]

- melting point: 172 to 174 °C
SMILES: O=C(c1ccc(F)cc1)C1C(c2ccc(Cl)cc2)C(Cc2cc3ccccc3[nH]2)NC12C(=O)Nc1ccc([N+](=O)[O-])cc12 (stereo not shown) [25f]

- melting point: 103 to 105 °C
SMILES: COc1ccc(C2C(Cc3cc4ccccc4[nH]3)NC3(C(=O)Nc4ccc(C)cc43)C2C(=O)c2ccc(F)cc2)cc1 (stereo not shown) [25e]

- melting point: 172 to 174 °C
SMILES: CN(C)c1ccc(/C=N/N2C(=O)C(C#N)=CC23c2ccccc2NC2C=CC=CC23)cc1 (stereo not shown) [compound 18]

- melting point: 138 to 140 °C
SMILES: O=C(c1ccc(F)cc1)C1C(c2ccc(Cl)cc2)C(Cc2cc3ccccc3[nH]2)NC12C(=O)Nc1ccc(Br)cc12 (stereo not shown) [25c]
